Test results from US12251373B2, “Compounds and methods of treating retinal degeneration” (CASE WESTERN RESERVE UNIVERSITY, priority 2017, dated 2025).
Like-named read-outs stand apart in the source and are kept apart here.

Columns and labels:
Assay type in all cases: cell-based
mouse P23H opsin mutant = mouse P23H opsin mutant (Mus musculus, UniProt P15409, P23H); assay: β-Gal fragment complementation assay: rescue of P23H opsin transport from ER to plasma membrane, U2OS(PLC-EA/P23H-PK) cells; conditions: for Emax: U2OS
Source text: U2OS(PLC-EA/P23H-PK) cells. A U2OS stable cell line was generated by DiscoveRx, Inc. (Fremont, CA, USA) for the β-Gal fragment complementation assay used in the small molecule HTS for rescue of P23H opsin transport. U2OS cells that continually express P23H-PK and PLC-EA fusion proteins were generated. Briefly, this small subunit of […] (PK fragment) was fused to the C-terminal of the mouse P23H opsin mutant, while the large EA fragment, a subunit of […], was fused with PLC, a plasma membrane anchored peptide. Both constructs were subcloned by DicoveRx, Inc. and transferred into U2OS cells by viral infections. Positive clones were selected under treatment with hygromycin and geneticin.
Briefly, U2OS(PLC-EA/P23H-PK) cells were suspended in assay medium at 3×10^5 cells mL^−1. The cell suspension was dispensed into 384-well plates (Greiner Bio-one, Monroe, NC, USA) at 20 μL per well, with a Multidrop dispenser (Thermo Scientific, Waltham, MA, USA). Plates with cells then were centrifuged at 200 g for 15 s before incubation at 37° C. with 5% CO2. Plates were removed 24 h later for treatment with tested compounds. A total of 248 plates containing 79,080 compounds from three small molecule libraries were paired with an equal number of assay plates with cultured cells. Due to a limited capacity, these plates were assayed in seven batches. An average of 56.3 nL of 10 mM compound in DMSO was dispensed into each well from column 3 to 22 of paired assay plates using a 50 nL 384-pintool system, such that the final concentration of each compound was 22.52 μM on average. […] Each assay plate was shaken for 5 s before further incubation at 37° C. with 5% CO2. […] Assay plates were incubated in the dark for 60-90 min, and luminescence was read from each assay plate with an Envision microplate reader (PerkinElmer) during a 0.1 s per well integration time. The mean and s.d. of readouts in column 2 of each plate were calculated as Mean0% and SD0%, whereas the average and s.d. of readouts in column 23 were calculated as Mean100% and SD100%. Equation 1: Activity scores (%)=(RLUcp−Mean0%)/(Mean100%−Mean0%)×100%, where RLUcp is the relative luminescence unit derived for cells treated with a compound. Equation 2: Z′-factor=1-3×(SD0%+SD100%)/(Mean100%−Mean0%); Equation 3: signal-to-background (S/B) ratio=Mean100%/Mean0%. Activities of all tested compounds were registered with their compound ID by GeneData Screener (Genedata, Basel, Switzerland) and Pipeline Pilot software (Accelrys, San Diego, CA, USA). Hits, cherry-picked from a separate stock dose-dependent activity test, were selected with an activity score cutoff at 20%. Activity of each hit was tested again with the β-Gal fragment complementation assay in a 10-dose series with each dose tested in triplicate. The 10 doses tested were 80, 40, 20, 10, 5, 2.5, 1.25, 0.625, 0.313, and 0.156 μM. Dose-dependent curves of each hit compound were fitted with GeneData and Origin software.
Detailed synthetic steps are described in FIG. 18. […] YC-002-YC-021 were purchased from commercial vendors including Enamine LLC (Monmouth Jct., NJ, USA), Matrix Scientific (Columbia, SC, USA) and Tokyo Chemical Industry Co., Ltd. (Portland, OR, USA). […] Activities of YC compounds were tested with the β-Gal fragment complementation assay, as described in a prior section. All YC compounds were tested at 10 doses, each in triplicate: 80, 40, 20, 10, 5, 2.5, 1.25, 0.625, 0.313, and 0.156 μM.

P23H opsin = target: T1, P23H opsin (Mus musculus, UniProt P15409, P23H); assay: Immunoblot of P23H opsin glycosylation in NIH3T3 cells; design: key to Improved glycosylation: n = no; y = yes; conditions: P23H opsin
T1 construct: expressed in transfected cells
Method: NIH3T3-(P23H-opsin/GFP) or NIH3T3-(WT-opsin/GFP) cells were seeded in a 48-well plate (Corning Costar) at 3.2×10^5 cells per well and incubated at 37° C. with 5% CO2 for 2 h. One hundred-μL of assay medium containing a compound at 5× its final concentration was added to each well. The plate was gently shaken for 5 s before further incubation at 37° C. with 5% CO2 for 24 h. The assay medium then was aspirated, and cells were lysed with 100 μL per well PBS containing 0.1% Triton X-100 and complete protease inhibitor cocktail (Roche, Basel, Switzerland) followed by sonication for 3 s. Protein concentrations were determined with the Bradford assay. For PNGase F catalyzed deglycosylation, 3 μL of PNGase F (1,500 U, NEB) was added to the cell lysate and the mixture was incubated at room temperature for 1 h before immunoblotting. For NIH3T3-(P23H-opsin/GFP) cells, 15 μg of total protein were loaded per well onto an SDS-polyacrylamide gel; whereas for NIH3T3-(WT-opsin/GFP) cells, 10 μg of total protein was loaded per well. Opsin protein was immunostained with 0.2 μg mL^−1 horseradish peroxidase-conjugated 1D4 anti-rhodopsin antibody. Band intensities were measured with ImageJ software (http://imagej.nih.gov/ij/; National the Institutes of Health, Bethesda, MD, USA) and normalized to a glyceraldehyde 3-phosphate dehydrogenase (GAPDH) loading control.

mouse P23H opsin = target: T2, mouse P23H opsin (Mus musculus, UniProt P15409, P23H); assay: Immunostain and image-based high-content analysis of P23H mutant opsin in NIH3T3 cells; conditions: ratio of P23H rod opsin fluorescence on plasma membrane to whole cell; for EC50: read-out: Immunostaining HCS MEM-Total ratio EC50
T2 construct: expressed in transfected cells
Source text: Three NIH3T3 stable cell lines, NIH3T3-(WT-opsin/GFP), NIH3T3-(P23H-opsin/GFP), and NIH3T3-(GFP) were previously generated which stably express mouse WT opsin and GFP; P23H opsin and GFP; and only GFP, respectively. GFP is expressed separately from opsin in these cell lines. NIH3T3 cells were from ATCC. DNA constructs for generating these stable cell lines were confirmed by Sanger sequencing. Expression of GFP was confirmed by green fluorescence imaging, and expression of P23H and WT opsin were confirmed by immunoblots.
To characterize the effect of active compounds on the localization of P23H mutant opsin in mammalian cells, an image-based assay was used with cells immunostained for WT or P23H mutant opsin protein. Briefly, NIH3T3-(P23H-opsin/GFP) or NIH3T3-(WT-opsin/GFP) cells were seeded at 5,000 cells per well in a 384-well cell-carrier plate (PerkinElmer) and incubated at 37° C. with 5% CO2 for 2 h. Cells were treated with compounds as described for the β-Gal fragment complementation assay and incubated in assay medium for 24 h. The assay medium then was aspirated, and cells were fixed with 4% paraformaldehyde at 20 μL per well for 20 min at RT. Cells were immunostained in one of two ways: cell membranes were either permeabilized with 0.1% Triton X-100 for 15 min or left intact and then were incubated with 10% goat serum (Life Technologies). To detect opsin on the cell plasma membrane only, intact cells were immunostained with 20 μL per well of 20 μg mL^−1 B6-30 anti-rhodopsin antibody that recognizes the N-terminal epitope on the extracellular side of rhodopsin. To detect total opsin, cells were permeabilized with Triton X-100 and immunostained with 50 μg mL^−1 1D4 anti-rhodopsin antibody specific for the C-terminal epitope on the intracellular side of rhodopsin. Opsin immunostaining was visualized by incubating cells with 5 μg mL^−1 Cy3-conjugated goat anti-mouse IgG antibody. Three washes with phosphate-buffered saline (PBS: 10 mM Na2HPO4, 1.8 mM KH2PO4, pH 7.4, 137 mM NaCl, and 2.7 mM KCl) were performed between each step of incubation with antibody. In the last wash with PBS, DAPI was added to each well at 300 nM. Fluorescence images were obtained with the Operetta High Content Imaging System (PerkinElmer) using a 20× long objective. Five fields were taken of each well for cell images using three channels for fluorescence: GFP (100 ms), Cy3 (300 ms), and DAPI (50 ms). Images were analyzed with Acapella software from the Columbus data storage and analysis system (PerkinElmer). For cells immunostained with opsin on the non-permeabilized cell membrane only, an average of total fluorescence intensity of Cy3 per cell was used to quantify opsin in each well of the 384-well plate. For cells immunostained with opsin in permeabilized whole cells, an average ratio of Cy3 intensity on the cell plasma membrane (PM) to that of the entire cell (opsin ratio PM-to-total) was calculated for each well of a 384-well plate to quantify opsin transport to the plasma membrane. The plasma membrane was defined within ±5% of the cell border.

[1] = Table 1, experimental maximum, read-out: β-Gal fragment complementation assay Activity score (%) Max (Exp)
[2] = Table 1, fitted maximum, read-out: β-Gal fragment complementation assay Activity score (%) Max (fit)
[3] = read-out: β-Gal fragment complementation assay Activity score (%) EC50
[4] = Table 3, modifications at C4 of the furan-2(5H)-one ring, read-out: Potency
[5] = Table 5, more than one site modified, read-out: Potency
[6] = Table 2, modifications at C3 of the furan-2(5H)-one ring, read-out: Potency EC50

Row | SMILES | Emax (mouse P23H opsin mutant; [1]) | Emax (mouse P23H opsin mutant; [2]) | EC50 (mouse P23H opsin mutant; [3]) | Improved glycosylation (P23H opsin) | Immunostaining HCS MEM-Total ratio Max (fit) (mouse P23H opsin) | EC50 (mouse P23H opsin) | Emax (mouse P23H opsin mutant; read-out: Efficacy (%)) | other results
1 | O=C(NCCn1ncc2c(NCc3ccco3)ncnc21)c1cc(-c2ccccc2)on1 [Compound F2902-1134] | 23.1% | 31.5% | 21.6 µM | n | 0.031 | 4.15 µM |  | 
2 | COCCNC(=O)c1sc2c(cnc3ccc(OC)cc32)c1-c1ccccc1 [Compound F3382-5924] | 931% | 155% | 28.6 µM | y | 0.046 | 2.42 µM |  | 
3 | O=C(Cn1c2c(c(=O)n(C3CCCCC3)c1=O)CCC2)Nc1cccc(F)c1 [Compound F5111-0031] | 60.4% | 165% | 54.3 µM | y | 0.025 | 6.76 µM |  | 
4 | O=C(C1CC1)N(CCn1cccn1)c1nc2c(Cl)cccc2s1 [Compound F5581-0240] | 244% | 230% | 5.93 µM | y | 0.010 | 0.64 µM |  | 
5 | O=C(NCCCOc1cccc2cccnc12)c1cc(-c2ccccc2)on1 [Compound F5875-0200] | 31.8% | 51.6% | 25 µM | n | 0.041 | 6.2 µM |  | 
6 | O=C(NCCCn1cccc1)c1cc(-c2ccccc2)on1 [Compound F5937-0207] | 32.8% | 37.3% | 8.38 µM | n | 0.021 | 1.33 µM |  | 
7 | O=C1OCC(c2cccs2)=C1c1cccs1 [YC-002] |  |  |  |  |  |  | 6% | EC50 (mouse P23H opsin mutant; [4]): 33 µM
8 | O=C1OCC(c2ccc(Cl)cc2)=C1c1cccs1 [YC-003] |  |  |  |  |  |  | 5% | EC50 (mouse P23H opsin mutant; [4]): 22 µM
9 | O=C1OCC(c2ccc(Br)s2)=C1c1ccc(Cl)c(Cl)c1 [YC-008] |  |  |  |  |  |  | 11% | EC50 (mouse P23H opsin mutant; [5]): 25 µM
10 | O=C1OCC(c2ccc(Br)s2)=C1c1ccc(F)cc1 [YC-009] |  |  |  |  |  |  | 10% | EC50 (mouse P23H opsin mutant; [5]): 7.2 µM
11 | O=C1OCC(c2ccc(Br)s2)=C1c1ccc(Cl)cc1 [YC-011] |  |  |  |  |  |  | 10% | EC50 (mouse P23H opsin mutant; [5]): 7.5 µM
12 | O=C1OCC(c2ccc(Cl)s2)=C1c1ccccc1[N+](=O)[O-] [YC-013] |  |  |  |  |  |  | 111% | EC50 (mouse P23H opsin mutant; [6]): 11 µM
13 | Cc1sc(C)c(C2C(=O)OC(=O)C2c2c(C)sc(C)c2C)c1C (centres unmarked) [YC-018] |  |  |  |  |  |  | 95% | 
14 | O=C1OCC(c2ccc(F)s2)=C1c1cccs1 [YC-021] |  |  |  |  |  |  | 160% | EC50 (mouse P23H opsin mutant; [4]): 103 µM
15 | O=C1OCC(c2ccc(Cl)s2)=C1c1ccccc1Cl [YC-032] |  |  |  |  |  |  | 288% | EC50 (mouse P23H opsin mutant; [6]): 5.8 µM
16 | COc1ccccc1C1=C(c2ccc(Cl)s2)COC1=O [YC-033] |  |  |  |  |  |  | 38.3% | EC50 (mouse P23H opsin mutant; [6]): 8.5 µM
17 | O=C1OCC(c2ccc(Cl)s2)=C1c1cccc(Cl)c1 [YC-034] |  |  |  |  |  |  | 43.5% | EC50 (mouse P23H opsin mutant; [6]): 4.75 µM
18 | O=C1OCC(c2ccc(Cl)s2)=C1c1ccccn1 [YC-043] |  |  |  |  |  |  | 214% | EC50 (mouse P23H opsin mutant; [6]): 19 µM
19 | O=C1OCC(c2ccc(F)cc2)=C1c1cccs1 [YC-044] |  |  |  |  |  |  | 10% | EC50 (mouse P23H opsin mutant; [4]): 37.6 µM
20 | O=C1OCC(c2ccco2)=C1c1cccs1 [YC-049] |  |  |  |  |  |  |  | Efficacy (%) (mouse P23H opsin mutant; Table 3, normalized to 5 μM 9-cis-retinal): 112%
